Experimental data taken from patent US10821115B2, “Compounds that inhibit Mcl-1 protein” (priority 2017, dated 2020).
pIC50: −log10 of the molar value. Read-outs that look alike come from different tables or passages of the source.

Assays:
[1] = test system: human multiple myeloma cell line, OPM-2; assay: Cell viability assay (OPM-2 10 FBS), CellTiter-Glo; format: cell-based
Method in brief: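 IC50 values come from 4-parameter logistic fits of luminescence signals reflecting cell viability. Treatment lasted 16 h at 37 °C in complete medium with 10% FBS, starting from 3000 cells/well.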

[2] = target: recombinant human Mcl-1 (residues 171-327) / Bim interaction (Homo sapiens (Human), UniProt Q07820); assay: biochemical; format: binding; details: read-out: Mcl-1 HTRF IC50
[3] = Homo sapiens, OPM-2, 16 h, read-out: OPM-2 10% FBS IC50 IP, OPM-2 cells, 10% FBS, 16 h incubation
[4] = 0.1 nM Mcl-1(171-327), 0.05 nM biotin-Bim (51-76)
[5] = read-out: OPM-2 10% FBS IC50 IP, OPM-2 cells, 10% FBS, 16 h incubation
[6] = Homo sapiens, OPM-2, 16 h, read-out: OPM-2 10% FBS IC50 IP, OPM-2 cells, 10% FBS, 16 h, CellTiter-Glo
[7] = TR-FRET, Mcl-1(171-327) / biotin-Bim (51-76)
[8] = read-out: OPM-2 10% FBS IC50 IP, OPM-2 cells, 10% FBS, 16 h, CellTiter-Glo

Sequence of recombinant human Mcl-1 (residues 171-327) / Bim interaction (Q07820 171-327): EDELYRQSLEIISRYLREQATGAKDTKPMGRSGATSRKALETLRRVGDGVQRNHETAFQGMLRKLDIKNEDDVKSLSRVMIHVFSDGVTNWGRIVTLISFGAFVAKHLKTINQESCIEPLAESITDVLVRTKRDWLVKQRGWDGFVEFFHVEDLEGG

Compound | pIC50 [2, 4] | pIC50 [1, 6] | pIC50 [2, 7] | pIC50 [1, 8] | other results
CCN1CCN(C[C@@]2(OC)/C=C/C[C@H](C)[C@@H](C)S(=O)(=O)NC(=O)c3ccc4c(c3)N(C[C@@H]3CC[C@H]32)C[C@@]2(CCCc3cc(Cl)ccc32)CO4)CC1(C)C [Example 330, (1S,3′R,6′R,7′R,8′E,11′S,12′R)-6-chloro-7′-((4-ethyl-3,3-dimethyl-1-piperazinyl)methyl)-7′-methoxy-11′,12′-dimethyl-3,4-dihydro-2H,15′H-spiro[naphthalene-1,22′-[20]oxa[13]thia[1,14]diazatetracyclo [14.7.2.0~3,6~.0~19,24~]pentacosa[8,16,18,24]tetraen]-15′-one 13′,13′-dioxide] | 9.37 |  |  |  | pIC50 [1, 3]: 6.56
C[C@@H]1[C@@H](C)C/C=C/[C@]2(CNC(=O)O2)[C@@H]2CC[C@H]2CN2C[C@@]3(CCCc4cc(Cl)ccc43)COc3ccc(cc32)C(=O)NS1(=O)=O (single isomer, unassigned) [Example 128] | 9.59 |  |  |  | pIC50 [1, 5]: 4.71
CO[C@@]1(CN2CCN3CC[C@H](F)C[C@@H]3C2)/C=C/C[C@H](C)[C@@H](C)S(=O)(=O)NC(=O)c2ccc3c(c2)N(C[C@@H]2CC[C@H]21)C[C@@]1(CCCc2cc(Cl)ccc21)CO3 (single isomer, unassigned) [Example 284] | 9.54 |  |  |  | pIC50 [1, 5]: 6.64
C=C(F)C[C@]1(O)/C=C/C[C@H](C)[C@@H](C)S(=O)(=O)NC(=O)c2ccc3c(c2)N(C[C@@H]2CC[C@H]21)C[C@@]1(CCCc2cc(Cl)ccc21)CO3 [Example 100565, (1S,3′R,6′R,7′S,8′E,11′S,12′R)-6-chloro-7′-(2-fluoro-2-propen-1-yl)-7′-hydroxy-11′,12′-dimethyl-3,4-dihydro-2H,15′H-spiro[naphthalene-1,22′-[20]oxa[13]thia[1,14]diazatetracyclo [14.7.2.0~3,6~.0~19,24~]pentacosa[8,16,18,24]tetraen]-15′-one 13′,13′-dioxide] |  | 5.69 | 8.81 |  | 
CO[C@]1(CC(=O)C(C)C)/C=C/C[C@H](C)[C@@H](C)S(=O)(=O)NC(=O)c2ccc3c(c2)N(C[C@@H]2CC[C@H]21)C[C@@]1(CCCc2cc(Cl)ccc21)CO3 [Example 100363, (1S,3′R,6′R,7′R,8′E,11′S,12′R)-6-chloro-7′-methoxy-11′,12′-dimethyl-7′-(3-methyl-2-oxobutyl)-3,4-dihydro-2H,15′H-spiro[naphthalene-1,22′-[20]oxa[13]thia[1,14]diazatetracyclo [14.7.2.0~3,6~.0~19,24~]pentacosa[8,16,18,24]tetraen]-15′-one 13′,13′-dioxide] |  | 5.42 |  |  | pIC50 [2]: 8.86
C=CC[C@@]1(O)/C=C/C[C@H](C)[C@@H](C)S(=O)(=O)NC(=O)c2ccc3c(c2)N(C[C@@H]2CC[C@H]21)C[C@@]1(CCCc2cc(Cl)ccc21)CO3 [Example 100130, (1S,3′R,6′R,7′R,8′E,11′S,12′R)-6-chloro-7′-hydroxy-11′,12′-dimethyl-7′-(2-propen-1-yl)-3,4-dihydro-2H,15′H-spiro[naphthalene-1,22′-[20]oxa[13]thia[1,14]diazatetracyclo [14.7.2.0~3,6~.0~19,24~]pentacosa[8,16,18,24]tetraen]-15′-one 13′,13′-dioxide] |  |  | 8.57 | 5.66 | 
C[C@@H]1[C@@H](C)C/C=C/[C@@](O)(C#CCN2CCS(=O)(=O)CC2)[C@@H]2CC[C@H]2CN2C[C@@]3(CCCc4cc(Cl)ccc43)COc3ccc(cc32)C(=O)NS1(=O)=O [Example 100388, (1S,3′R,6′R,7′S,8′E,11′S,12′R)-6-chloro-7′-(3-(1,1-dioxido-4-thiomorpholinyl)-1-propyn-1-yl)-7′-hydroxy-11′,12′-dimethyl-3,4-dihydro-2H,15′H-spiro[naphthalene-1,22′-[20]oxa[13]thia[1,14]diazatetracyclo [14.7.2.0~3,6~.0~19,24~]pentacosa[8,16,18,24]tetraen]-15′-one 13′,13′-dioxide] |  |  | 8.93 | 5.67 | 
CO[C@@]1(C[C@H](O)c2ccccn2)/C=C/C[C@H](C)[C@@H](C)S(=O)(=O)NC(=O)c2ccc3c(c2)N(C[C@@H]2CC[C@H]21)C[C@@]1(CCCc2cc(Cl)ccc21)CO3 (single isomer, unassigned) [Example 100490] |  |  | 9.53 | 6.29 | 
CO[C@]1(CN2CCN3CCOC[C@@H]3C2)/C=C/[C@H](C)[C@H](C)CS(=O)(=O)NC(=O)c2ccc3c(c2)N(C[C@@H]2CC[C@H]21)C[C@@]1(CCCc2cc(Cl)ccc21)CO3 [Example 157, (1S,3′R,6′R,7′R,8′E,10′S,11′S)-6-chloro-7′-((9aS)-hexahydropyrazino[2,1-c][1,4]oxazin-8(1H)-ylmethyl)-7′-methoxy-10′,11′-dimethyl-3,4-dihydro-2H,15′H-spiro[naphthalene-1,22′-[20]oxa[13]thia[1,14]diazatetracyclo [14.7.2.0~3,6~.0~19,24~]pentacosa[8,16,18,24]tetraen]-15′-one 13′,13′-dioxide] | 9.90 |  |  |  | pIC50 [1, 3]: 6.92
C[C@@H]1[C@@H](C)CCC[C@](O)([C@@H](C)C(=O)N(C)C)[C@@H]2CC[C@H]2CN2C[C@@]3(CCCc4cc(Cl)ccc43)COc3ccc(cc32)C(=O)NS1(=O)=O (single isomer, unassigned) [Example 100119] |  |  | 8.76 | 5.80 | 
COC[C@]1(OC)CCC[C@H](C)[C@@H](C)S(=O)(=O)NC(=O)c2ccc3c(c2)N(C[C@@H]2CC[C@H]21)C[C@@]1(CCCc2cc(Cl)ccc21)CO3 [Example 100189, (1S,3′R,6′R,7′S,11′S,12′R)-6-chloro-7′-methoxy-7′-(methoxymethyl)-11′,12′-dimethyl-3,4-dihydro-2H,15′H-spiro[naphthalene-1,22′-[20]oxa[13]thia[1,14]diazatetracyclo [14.7.2.0~3,6~.0~19,24~]pentacosa[16,18,24]trien]-15′-one 13′,13′-dioxide] |  | 6.15 | 9.09 |  | 
CO[C@@]1(C[C@@H](C)O)/C=C/C[C@H](C)[C@@H](C)S(=O)(=O)NC(=O)c2ccc3c(c2)N(C[C@@H]2CC[C@H]21)C[C@@]1(CCCc2cc(Cl)ccc21)CO3 [Example 100436, (1S,3′R,6′R,7′S,8′E,11′S,12′R)-6-chloro-7′-((2R)-2-hydroxypropyl)-7′-methoxy-11′,12′-dimethyl-3,4-dihydro-2H,15′H-spiro[naphthalene-1,22′-[20]oxa[13]thia[1,14]diazatetracyclo [14.7.2.0~3,6~.0~19,24~]pentacosa[8,16,18,24]tetraen]-15′-one 13′,13′-dioxide] |  |  | 10.12 | 6.47 | 
C[C@@H]1[C@@H](C)C/C=C/[C@@](O)(C2CC2)[C@@H]2CC[C@H]2CN2C[C@@]3(CCCc4cc(Cl)ccc43)COc3ccc(cc32)C(=O)NS1(=O)=O [Example 100214, (1S,3′R,6′R,7′S,8′E,11′S,12′R)-6-chloro-7′-cyclopropyl-7′-hydroxy-11′,12′-dimethyl-3,4-dihydro-2H,15′H-spiro[naphthalene-1,22′-[20]oxa[13]thia[1,14]diazatetracyclo [14.7.2.0~3,6~.0~19,24~]pentacosa[8,16,18,24]tetraen]-15′-one 13′,13′-dioxide] |  | 7.02 | 9.84 |  | 
